# Results reported in US8883167B2, “Ethanol extract of Antrodia camphorata for inducing apoptosis and preparation method thereof” (Kaohsiung Medical University, priority 2009, dated 2014).
# Test system: HL 60 cells
# Assay: MTT cytotoxicity / antiproliferative assay on HL 60 cells
# Type: cell-based
# Conditions: Homo sapiens, Embodiment 1, 24 hours, read-out: 50% inhibition concentration (IC50) on HL 60 cells by MTT assay
# Protocol: Human leukemia HL 60 cell line was purchased from American Type Culture Collection (ATCC, Manassas, Va.) and incubated in RPMI 1640 medium supplemented with 10% fetal calf serum, 2 mM glutamine, 100 units/ml penicillin and 100 μg/ml streptomycin at 37° C. in a humidified atmosphere of 5% carbon dioxide.
# Cell viability was determined by the trypan blue dye exclusion and cytotoxicity was assessed by MTT assay. First, 1×10^5 HL 60 cells were plated in 96-well plates and treated with different concentrations of EEAC dissolved in dimethyl sulfoxide (DMSO) at the concentrations of 0 to 150 μg/ml for 24 hours. Death cells then were stained with trypan blue, and the survival cells were calculated with hemocytometer. In MTT assay, 1.2 mg/ml MTT was added in each well, which was incubated for 2 hours to form […], formazan. Formazan was dissolved in DMSO, and absorbance was detected at a wavelength of 570 nm.
smiles,measurement,value
C=C(CC[C@@H](C)C1CCC2C3=C(C(=O)CC21C)C1(C)CCC(=O)[C@@H](C)C1CC3=O)C(C)C(=O)O (stereo partly shown) [zhankuic acid A],IC50,5.45 µg/mL
